For one compound, inhibition, Activity and IC50 results are on record in ChEMBL document CHEMBL3872242, “Anti-inflammatory tetraquinane diterpenoids from a Crinipellis species” (Bioorg Med Chem, 2017).

Data set [1] has as its system MONO-MAC-6. As to the kind of experiment: Inhibition of LPS/INF-gamma induced CXCL10 promoter dependent transcription activity in human MONO-MAC-6 cells measured after 4 hrs by luciferase reporter gene assay. The data set is classed as functional. Background: Reporter assays use an easily measured gene product as a stand-in for the process of interest.
A short description of data set [2]: Effect on constitutive activity of EF-1alpha expressed in human MONO-MAC-6 cells up to 50 uM measured after 4 hrs by luciferase reporter gene assay. The class given is ADME, cell-based. The conditions noted are these: mono-mac-6, 4 h.
Data set [3] is described as follows: Cytotoxicity against human MONO-MAC-6 cells up to 50 uM measured after 24 hrs by XTT assay. The class given is toxicity, cell-based. The note with it: mono-mac-6, 24 h.
The nature of data set [4]: Inhibition of NF-kappaB (unknown origin) expressed in LPS/INF-gamma-stimulated human MONO-MAC-6 cells measured after 4 hrs by luciferase reporter gene assay. The data set is classed as cell-based. The note with it: MONO-MAC-6, 4 h.
Data set [5] is described as follows: Inhibition of IRF (unknown origin) expressed in LPS/INF-gamma-stimulated human MONO-MAC-6 cells assessed as reduction in ISRE dependent transcription activity measured after 4 hrs by luciferase reporter gene assay. The note with it: MONO-MAC-6, 4 h. The class given is cell-based.
Data set [6] has as its system MONO-MAC-6. As to the kind of experiment: Inhibition of human THP1 cells derived IL-8 promoter dependent transcription activity expressed in LPS/INF-gamma stimulated human MONO-MAC-6 cells measured after 4 hrs by luciferase reporter gene assay. The class given is functional, cell-based. The note with it: MONO-MAC-6, 4 h.
Data set [7] in a line: Down regulation of TNF-alpha mRNA expression in LPS/INF-gamma stimulated human MONO-MAC-6 cells at 16.54 uM preincubated for 1 hr followed by LPS/INF-gamma stimulation measured after 4 hrs by quantitative RT-PCR analysis. The data set is classed as functional, cell-based.
Data set [8] is described as follows: Down regulation of IL-6 mRNA expression in LPS/INF-gamma stimulated human MONO-MAC-6 cells at 16.54 uM preincubated for 1 hr followed by LPS/INF-gamma stimulation measured after 4 hrs by quantitative RT-PCR analysis. The class given is functional, cell-based.
A short description of data set [9]: Downregulation of CXCL10 mRNA expression in human MONO-MAC-6 cells at 16.54 uM preincubated for 1 hr followed by LPS/INF-gamma stimulation measured after 4 hrs by quantitative RT-PCR analysis. The data set is classed as functional, cell-based.
Data set [10] can be described thus: Down regulation of COX-2 mRNA expression in LPS/INF-gamma stimulated human MONO-MAC-6 cells at 16.54 uM preincubated for 1 hr followed by LPS/INF-gamma stimulation measured after 4 hrs by quantitative RT-PCR analysis. The data set is classed as functional, cell-based.
Data set [11] is described as follows: Down regulation of CCL2 mRNA expression in LPS/INF-gamma stimulated human MONO-MAC-6 cells at 16.54 uM preincubated for 1 hr followed by LPS/INF-gamma stimulation measured after 4 hrs by quantitative RT-PCR analysis. The data set is classed as functional, cell-based.
Data set [12] can be described thus: Down regulation of IL-8 mRNA expression in LPS/INF-gamma stimulated human MONO-MAC-6 cells at 16.54 uM preincubated for 1 hr followed by LPS/INF-gamma stimulation measured after 4 hrs by quantitative RT-PCR analysis. The class given is functional, cell-based.
Data set [13] deals with MONO-MAC-6. Nature of the data set: Inhibition of IL-6 mRNA expression in LPS/INF-gamma stimulated human MONO-MAC-6 cells at 16.54 uM preincubated for 1 hr followed by LPS/INF-gamma stimulation measured after 16 hrs. The class given is functional, cell-based.
Data set [14] has as its system MONO-MAC-6. As to the kind of experiment: Inhibition of TNF-alpha mRNA expression in LPS/INF-gamma stimulated human MONO-MAC-6 cells at 16.54 uM preincubated for 1 hr followed by LPS/INF-gamma stimulation measured after 16 hrs. The class given is functional, cell-based.
For data set [15], the system named is MONO-MAC-6. Nature of the data set: Inhibition of IL-23 mRNA expression in LPS/INF-gamma stimulated human MONO-MAC-6 cells at 16.54 uM preincubated for 1 hr followed by LPS/INF-gamma stimulation measured after 16 hrs. The class given is functional, cell-based.
The test system of data set [16] is MONO-MAC-6. Nature of the data set: Inhibition of CXCL1 mRNA expression in LPS/INF-gamma stimulated human MONO-MAC-6 cells at 16.54 uM preincubated for 1 hr followed by LPS/INF-gamma stimulation measured after 16 hrs. The data set is classed as functional, cell-based.
Data set [17] deals with MONO-MAC-6. As to the kind of experiment: Inhibition of CXCL10 mRNA expression in LPS/INF-gamma stimulated human MONO-MAC-6 cells at 16.54 uM preincubated for 1 hr followed by LPS/INF-gamma stimulation measured after 16 hrs. The class given is functional, cell-based.
Data set [18] concerns MONO-MAC-6. Nature of the data set: Inhibition of CXCL11 mRNA expression in LPS/INF-gamma stimulated human MONO-MAC-6 cells at 16.54 uM preincubated for 1 hr followed by LPS/INF-gamma stimulation measured after 16 hrs. The class given is functional, cell-based.
Data set [19] relates to MONO-MAC-6. Nature of the data set: Inhibition of IL-8 mRNA expression in LPS/INF-gamma stimulated human MONO-MAC-6 cells at 16.54 uM preincubated for 1 hr followed by LPS/INF-gamma stimulation measured after 16 hrs. The data set is classed as functional, cell-based.
The subject of data set [20] is MONO-MAC-6. As to the kind of experiment: Inhibition of CCL1 mRNA expression in LPS/INF-gamma stimulated human MONO-MAC-6 cells at 16.54 uM preincubated for 1 hr followed by LPS/INF-gamma stimulation measured after 16 hrs. The data set is classed as functional, cell-based.
Data set [21] relates to MONO-MAC-6. As to the kind of experiment: Inhibition of CCL3 mRNA expression in LPS/INF-gamma stimulated human MONO-MAC-6 cells at 16.54 uM preincubated for 1 hr followed by LPS/INF-gamma stimulation measured after 16 hrs. The data set is classed as functional, cell-based.
Data set [22] can be described thus: Effect on GAPDH mRNA expression in human MONO-MAC-6 cells at 3.31 to 16.54 uM preincubated for 1 hr followed by LPS/INF-gamma stimulation measured after 4 hrs by quantitative RT-PCR analysis. The data set is classed as ADME, cell-based. The conditions noted are these: mono-mac-6, 4 h.

SMILES strings stand for the structures. pIC50: −log10 of the molar value. Activity calls are given as the source filed them. The calls are words filed in the database; no cut-off is given here.

As usually defined, the pIC50 is the IC50 on a negative log10 scale, so that one unit is a factor of ten.

Turning to `C=C[C@H]1CC[C@]23C[C@@H]4[C@H](C)C(=O)[C@H]5O[C@]54[C@@]2(C)C[C@H](O)[C@]13C`, in [1], the inhibition result is “Dose-dependent effect”. The Activity entry in data set [2], in [3] and in data set [22] was “Non-Toxic” throughout. For the same compound, the pIC50 in [4] was 5.52 to 5.57; in [5] it was 5.92 to 6.00; in data set [6] it was 5.82 to 5.89. Besides, the outcome in data set [7], in [8], in [9], in [10], in data set [11] and in data set [12] was Active. The inhibition result in [13], in data set [14], in data set [15], in [16], in [17] and in data set [18] was “Active” throughout. Further, the inhibition result in data set [19], in data set [20] and in [21] was “Active” throughout.
